Assay results from patent US20140148443A1, “Novel Imidazolines as dual inhibitors of MDM2 and MDMX” (priority 2012, published 2014).

What was measured:
[1] = biological target: recombinant GST-tagged MDM2 (Homo sapiens, UniProt Q00987); assay: HTRF assay of interaction between p53 peptide and GST-tagged MDM2; details: inhibition of GST-MDM2 (160 ng/ml) binding to biotinylated p53-peptide
Procedure, shortened: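 Compounds were preincubated with 160 ng/ml GST-MDM2 and 90 nM N-terminally biotinylated p53-like peptide (final) in 20 mM TBS, 0.02% BSA, 1 mM DTT for 1 h at 37 °C. Eu-anti-GST antibody and streptavidin-APC were added for 30 min at room temperature; binding read as TR-FRET at 665 and 615 nm.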

GST-tagged MDMX = biological target: T1, GST-tagged MDMX (Homo sapiens, UniProt O15151); assay: HTRF binding assay of GST-tagged MDMX to p53 peptide
T1 sequence (O15151 1-490): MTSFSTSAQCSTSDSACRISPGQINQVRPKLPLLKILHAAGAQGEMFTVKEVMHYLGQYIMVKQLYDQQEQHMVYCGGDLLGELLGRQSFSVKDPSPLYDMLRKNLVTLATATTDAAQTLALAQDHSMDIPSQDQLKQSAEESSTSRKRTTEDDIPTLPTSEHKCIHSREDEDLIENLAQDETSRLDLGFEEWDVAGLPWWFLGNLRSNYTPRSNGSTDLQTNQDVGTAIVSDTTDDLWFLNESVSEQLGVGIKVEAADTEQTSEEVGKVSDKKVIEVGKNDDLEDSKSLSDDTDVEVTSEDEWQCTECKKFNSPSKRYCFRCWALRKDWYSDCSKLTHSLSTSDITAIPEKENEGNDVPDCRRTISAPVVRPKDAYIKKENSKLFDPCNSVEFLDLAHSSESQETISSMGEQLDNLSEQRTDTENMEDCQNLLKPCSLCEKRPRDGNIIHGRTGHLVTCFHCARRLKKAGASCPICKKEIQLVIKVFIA

Chain of recombinant GST-tagged MDM2 (Q00987 whole entry): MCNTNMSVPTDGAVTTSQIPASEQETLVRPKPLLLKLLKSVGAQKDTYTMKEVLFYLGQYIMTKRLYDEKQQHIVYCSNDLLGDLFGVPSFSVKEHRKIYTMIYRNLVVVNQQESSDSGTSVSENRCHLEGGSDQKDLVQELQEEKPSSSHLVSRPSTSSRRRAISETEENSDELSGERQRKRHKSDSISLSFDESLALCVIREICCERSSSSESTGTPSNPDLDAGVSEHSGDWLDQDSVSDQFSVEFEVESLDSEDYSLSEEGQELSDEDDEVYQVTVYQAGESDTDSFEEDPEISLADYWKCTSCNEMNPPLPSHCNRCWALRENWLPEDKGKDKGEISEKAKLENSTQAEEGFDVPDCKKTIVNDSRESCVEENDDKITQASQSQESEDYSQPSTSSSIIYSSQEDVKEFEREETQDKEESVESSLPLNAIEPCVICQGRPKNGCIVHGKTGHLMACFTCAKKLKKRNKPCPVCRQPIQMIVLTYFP

Row | Structure (SMILES) | IC50 [1] [nM] | IC50 (GST-tagged MDMX) [nM]
1 | CCOc1cc(Cl)c(S(=O)(=O)NC(C)(C)C)cc1C1=N[C@@](C)(c2ccc(Cl)cc2)[C@@](C)(c2ccc(Cl)cc2)N1C(=O)N1CCN(CC(=O)NCCOC)CC1 [Example 49, 2-{4-[(4S,5R)-2-(5-tert-Butylsulfamoyl-4-chloro-2-ethoxy-phenyl)-4,5-bis-(4-chloro-phenyl)-4,5-dimethyl-4,5-dihydro-imidazole-1-carbonyl]-piperazin-1-yl}-N-(2-methoxy-ethyl)-acetamide] | 8.7 | 1340
2 | CCOc1cc(Cl)c(S(=O)(=O)NC(C)(C)C)cc1C1=N[C@@](C)(c2ccc(Cl)cc2)[C@@](C)(c2ccc(Cl)cc2)N1C(=O)N1CCN(CCC(N)=O)CC1 [Example 50, 3-{4-[(4S,5R)-2-(5-tert-Butylsulfamoyl-4-chloro-2-ethoxy-phenyl)-4,5-bis-(4-chloro-phenyl)-4,5-dimethyl-4,5-dihydro-imidazole-1-carbonyl]-piperazin-1-yl}-propionamide] | 9.3 | 1450
3 | CCOc1cc(Cl)c(S(=O)(=O)NC(C)(C)C)cc1C1=N[C@@](C)(c2ccc(Cl)cc2)[C@@](C)(c2ccc(Cl)cc2)N1C(=O)N1CCN(C2CCS(=O)(=O)C2)CC1 (stereo partly drawn) [Example 51, 5-{(4S,5R)-4,5-Bis-(4-chloro-phenyl)-1-[4-(1,1-dioxo-tetrahydro-thiophen-3-yl)-piperazine-1-carbonyl]-4,5-dimethyl-4,5-dihydro-1H-imidazol-2-yl}-N-tert-butyl-2-chloro-4-ethoxy-benzenesulfonamide] | 7 | 798
4 | CCOc1cc(Cl)c(S(=O)(=O)NC(C)(C)C)cc1C1=N[C@@](C)(c2ccc(Cl)cc2)[C@@](C)(c2ccc(Cl)cc2)N1C(=O)N1CCN(C(=O)Cn2cnnn2)CC1 [Example 52, 5-{(4S,5R)-4,5-Bis-(4-chloro-phenyl)-4,5-dimethyl-1-[4-(2-tetrazol-1-yl-acetyl)-piperazine-1-carbonyl]-4,5-dihydro-1H-imidazol-2-yl}-N-tert-butyl-2-chloro-4-ethoxy-benzene sulfonamide] | 17.3 | 3760
5 | CCOc1cc(Cl)c(S(=O)(=O)NC(C)(C)C)cc1C1=N[C@@](C)(c2ccc(Cl)cc2)[C@@](C)(c2ccc(Cl)cc2)N1C(=O)N1CCC(N2CCNC(=O)CC2)CC1 [Example 53, 5-{(4S,5R)-4,5-Bis-(4-chloro-phenyl)-4,5-dimethyl-1-[4-(5-oxo-[1,4]diazepan-1-yl)-piperidine-1-carbonyl]-4,5-dihydro-1H-imidazol-2-yl}-N-tert-butyl-2-chloro-4-ethoxy-benzene sulfonamide] | 14.5 | 1110
6 | CCOc1cc(Cl)c(S(=O)(=O)NC(C)(C)C)cc1C1=N[C@@](C)(c2ccc(Cl)cc2)[C@@](C)(c2ccc(Cl)cc2)N1C(=O)N1CCCC(O)C1 (stereo partly drawn) [Example 54, 5-[(4S,5R)-4,5-Bis-(4-chloro-phenyl)-1-(3-hydroxy-piperidine-1-carbonyl)-4,5-dimethyl-4,5-dihydro-1H-imidazol-2-yl]-N-tert-butyl-2-chloro-4-ethoxy-benzenesulfonamide] | 16.1 | 4000
7 | CCCOc1cc(Cl)c(S(=O)(=O)N2CCCC2)cc1C1=N[C@@](C)(c2ccc(Cl)cc2)[C@@](C)(c2ccc(Cl)cc2)N1C(=O)N1CCN(CCCS(C)(=O)=O)CC1 [Example 55, {(4S,5R)-4,5-Bis-(4-chloro-phenyl)-2-[4-chloro-2-propoxy-5-(pyrrolidine-1-sulfonyl)-phenyl]-4,5-dimethyl-4,5-dihydro-imidazol-1-yl}-[4-(3-methanesulfonyl-propyl)-piperazin-1-yl]-methanone] | 18.1 | 3940
8 | CCOc1cc(Cl)c(S(=O)(=O)N2CCCC2)cc1C1=N[C@@](C)(c2ccc(Cl)cc2)[C@@](C)(c2ccc(Cl)cc2)N1C(=O)N1CCC(CC(N)=O)CC1 [Example 56, 2-{1-[(4S,5R)-2-[4-Chloro-2-ethoxy-5-(pyrrolidine-1-sulfonyl)-phenyl]-4,5-bis-(4-chloro-phenyl)-4,5-dimethyl-4,5-dihydro-imidazole-1-carbonyl]-piperidin-4-yl}-acetamide] | 8.5 | 3430
9 | CCOc1cc(Cl)c(S(=O)(=O)N2CCOCC2)cc1C1=N[C@@](C)(c2ccc(Cl)cc2)[C@@](C)(c2ccc(Cl)cc2)N1C(=O)N1CCN(CCCS(C)(=O)=O)CC1 [Example 57, [(4S,5R)-2-[4-Chloro-2-ethoxy-5-(morpholine-4-sulfonyl)-phenyl]-4,5-bis-(4-chloro-phenyl)-4,5-dimethyl-4,5-dihydro-imidazol-1-yl]-[4-(3-methanesulfonyl-propyl)-piperazin-1-yl]-methanone] | 40 | 1640
10 | CC(C)Oc1cc(Cl)c(S(=O)(=O)N2CCCC2)cc1C1=N[C@@](C)(c2ccc(Cl)cc2)[C@@](C)(c2ccc(Cl)cc2)N1C(=O)N1CCN(CCCS(C)(=O)=O)CC1 [Example 58, [(4S,5R)-2-[4-Chloro-2-isopropoxy-5-(pyrrolidine-1-sulfonyl)-phenyl]-4,5-bis-(4-chloro-phenyl)-4,5-dimethyl-4,5-dihydro-imidazol-1-yl]-[4-(3-methanesulfonyl-propyl)-piperazin-1-yl]-methanone] | 4.6 | 232
11 | CC(C)Oc1cc(Cl)c(S(=O)(=O)N2CCCC2)cc1C1=N[C@@](C)(c2ccc(Cl)cc2)[C@@](C)(c2ccc(Cl)cc2)N1C(=O)N1CCC(CC(N)=O)CC1 [Example 59, 2-{1-[(4S,5R)-2-[4-Chloro-2-isopropoxy-5-(pyrrolidine-1-sulfonyl)-phenyl]-4,5-bis-(4-chloro-phenyl)-4,5-dimethyl-4,5-dihydro-imidazole-1-carbonyl]-piperidin-4-yl}-acetamide] | 5.8 | 195
12 | CC(C)Oc1cc(Cl)c(S(=O)(=O)NC(C)(C)C)cc1C1=N[C@@](C)(c2ccc(Cl)cc2)[C@@](C)(c2ccc(Cl)cc2)N1C(=O)N1CCC(CC(N)=O)CC1 [Example 60, 2-{1-[(4S,5R)-2-(5-tert-Butylsulfamoyl-4-chloro-2-isopropoxy-phenyl)-4,5-bis-(4-chloro-phenyl)-4,5-dimethyl-4,5-dihydro-imidazole-1-carbonyl]-piperidin-4-yl}-acetamide] | 15 | 570
13 | CC(C)Oc1cc(Cl)c(S(=O)(=O)N2C[C@H]3CC[C@@H](C2)O3)cc1C1=N[C@@](C)(c2ccc(Cl)cc2)[C@@](C)(c2ccc(Cl)cc2)N1C(=O)N1CCC(CC(N)=O)CC1 [Example 61, 2-{1-[(4S,5R)-2-{4-Chloro-2-isopropoxy-5-[(1R,5S)-(8-oxa-3-aza-bicyclo[3.2.1]oct-3-yl)sulfonyl]-phenyl}-4,5-bis-(4-chloro-phenyl)-4,5-dimethyl-4,5-dihydro-imidazole-1-carbonyl]-piperidin-4-yl}-acetamide] | 9.1 | 267
14 | CC(C)Oc1cc(Cl)c(S(=O)(=O)N2C[C@H]3CC[C@@H](C2)O3)cc1C1=N[C@@](C)(c2ccc(Cl)cc2)[C@@](C)(c2ccc(Cl)cc2)N1C(=O)N1CCN(CCCS(C)(=O)=O)CC1 [Example 62, [(4S,5R)-2-{4-Chloro-2-isopropoxy-5-[(1R,5S)-(8-oxa-3-aza-bicyclo[3.2.1]oct-3-yl)sulfonyl]-phenyl}-4,5-bis-(4-chloro-phenyl)-4,5-dimethyl-4,5-dihydro-imidazol-1-yl]-[4-(3-methanesulfonyl-propyl)-piperazin-1-yl]-methanone] | 4.8 | 193
15 | CC(C)Oc1cc(Cl)c(S(=O)(=O)NC(C)(C)C)cc1C1=N[C@@](C)(c2ccc(Cl)cc2)[C@@](C)(c2ccc(Cl)cc2)N1C(=O)N1CCN(CCCS(C)(=O)=O)CC1 [Example 63, 5-{(4S,5R)-4,5-Bis-(4-chloro-phenyl)-1-[4-(3-methanesulfonyl-propyl)-piperazine-1-carbonyl]-4,5-dimethyl-4,5-dihydro-1H-imidazol-2-yl}-N-tert-butyl-2-chloro-4-isopropoxy-benzenesulfonamide] | 4.4 | 212
16 | CC(C)Oc1cc(Cl)c(S(N)(=O)=O)cc1C1=N[C@@](C)(c2ccc(Cl)cc2)[C@@](C)(c2ccc(Cl)cc2)N1C(=O)N1CCC(CC(N)=O)CC1 [Example 64, 2-{1-[(4S,5R)-2-(4-Chloro-2-isopropoxy-5-sulfamoyl-phenyl)-4,5-bis-(4-chloro-phenyl)-4,5-dimethyl-4,5-dihydro-imidazole-1-carbonyl]-piperidin-4-yl}-acetamide] | 6.2 | 283
17 | CC(C)Oc1cc(Cl)c(S(N)(=O)=O)cc1C1=N[C@@](C)(c2ccc(Cl)cc2)[C@@](C)(c2ccc(Cl)cc2)N1C(=O)N1CCN(CCCS(C)(=O)=O)CC1 [Example 65, 5-{(4S,5R)-4,5-Bis-(4-chloro-phenyl)-1-[4-(3-methanesulfonyl-propyl)-piperazine-1-carbonyl]-4,5-dimethyl-4,5-dihydro-1H-imidazol-2-yl}-2-chloro-4-isopropoxy-benzenesulfonamide] | 7.7 | 337
